Source: PubChem BioAssay (NCI)
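Test compounds were applied to cells in 96-well plates for 48 hours at 5 doses. TGI is the concentration that stops growth completely.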

Experiments:
Experiment in all cases: inhibition of tumour cell growth, NCI panel, 48 h
[1] = system: MALME-3M melanoma
[2] = system: CAKI-1 renal
[3] = system: SNB-19 CNS
[4] = system: SF-295 CNS
[5] = system: UACC-62 melanoma
[6] = system: PC-3 prostate
[7] = system: SF-539 CNS
[8] = system: NCI-H23 lung
[9] = system: SF-268 CNS
[10] = system: SK-MEL-28 melanoma
[11] = system: MDA-MB-435
[12] = system: NCI-H522 lung
[13] = system: MDA-MB-231 breast
[14] = system: MDA-N
[15] = system: SK-MEL-2 melanoma
[16] = system: NCI-H460 lung
[17] = system: RPMI-8226 leukemia
[18] = system: NCI-H226 lung
[19] = system: MOLT-4 leukemia
[20] = system: M14 melanoma
[21] = system: HOP-62 NSCLC
[22] = system: UO-31 renal
[23] = system: OVCAR-3 ovarian
[24] = system: ACHN renal
[25] = system: HCT-15 colon
[26] = system: HCT-116 colon
[27] = system: A549 NSCLC
[28] = system: HOP-92 NSCLC
[29] = system: HS 578T breast
[30] = system: HCC-2998 colon
[31] = system: UACC-257 melanoma
[32] = system: BT-549 breast
[33] = system: KM12 colon
[34] = system: OVCAR-4 ovarian
[35] = system: TK-10 renal
[36] = system: SR leukemia
[37] = system: MCF7 breast
[38] = system: SN12C renal
[39] = system: SNB-75 CNS
[40] = system: LOX IMVI melanoma
[41] = system: DU-145 prostate
[42] = system: OVCAR-5 ovarian
[43] = system: SW-620 colon
[44] = system: COLO 205 colon
[45] = system: SK-OV-3 ovarian
[46] = system: 786-0 renal
[47] = system: U251 CNS
[48] = system: HL-60(TB) leukemia
[49] = system: OVCAR-8 ovarian
[50] = system: HT29 colon
[51] = system: K-562 leukemia
[52] = system: IGROV1 ovarian
[53] = system: CCRF-CEM leukemia
[54] = system: NCI/ADR-RES ovarian
[55] = system: EKVX NSCLC
[56] = system: A498 renal
[57] = system: T-47D breast
[58] = system: SK-MEL-5 melanoma
[59] = system: RXF 393 renal

Measured: TGI

Cc1ccc2nc(CN3CCCC(O)C3)cc(=O)n2c1 (stereo not drawn)
not listed: [56] | [57] | [58] | [59]
> 100 µM: all other assays above

CCC(Sc1cc(Cl)c(C)cc1S(=O)(=O)Nc1nc(N)nc(N(C)C)n1)C(=O)O (stereo not drawn)
not listed: [5] | [11] | [13]
> 10 µM: all other assays above

COc1cc(OCc2ccc3nc(-c4ccccc4)c(Cl)nc3c2)cc(OC)c1OC
98.9 µM: [56]
52.3 µM: [47]
96.1 µM: [1]
78.3 µM: [28]
not listed: [18] | [32] | [45] | [51] | [59]
> 100 µM: all other assays above

CC12CCC3[C@@H](CC3(C)C)C(O)(CCC1=O)C2 (stereo partly drawn)
not listed: [3] | [12] | [16] | [32] | [56] | [59]
> 100 µM: all other assays above

COc1cc(S(=O)(=O)Nc2nc(-c3ccc(N4C(=O)CSC4c4cccs4)cc3)cs2)ccc1Cl (stereo not drawn)
73.4 µM: [22]
48.2 µM: [40]
96.8 µM: [36]
97.7 µM: [34]
46.7 µM: [25]
55.9 µM: [59]
83.2 µM: [12]
77.8 µM: [38]
89 µM: [8]
not listed: [17] | [30] | [32] | [55]
> 100 µM: all other assays above

N#CC(C#N)N=Cc1ccncc1
not listed: [3] | [12] | [16] | [22] | [29] | [36]
> 100 µM: all other assays above

O=C1c2cccc3cc([N+](=O)[O-])cc(c23)C(=O)N1CCCN1CCN(CCCNc2ccc3ncn4c5ccccc5c(=O)c2c34)CC1
0.0871 µM: [7]
5.67 µM: [56]
0.62 µM: [13]
> 17.1 µM: [6]
> 16.9 µM: [42]
> 19.9 µM: [41]
0.173 µM: [49]
16.1 µM: [9]
0.00674 µM: [2]
> 29 µM: [15]
0.187 µM: [39]
> 20 µM: [45]
> 25.5 µM: [10]
> 50 µM: [3] | [5] | [11] | [16] | [17] | [19] | [25] | [27] | [28] | [31] | [34] | [43] | [55]
0.0785 µM: [20]
0.00861 µM: [47]
> 17.2 µM: [23]
1.74 µM: [21]
5 µM: [53]
8.75 µM: [29]
0.579 µM: [14]
0.0361 µM: [32]
0.0864 µM: [54]
< 0.005 µM: [18] | [37] | [50]

O=C1CC(CC(O)[C@@H]2CCCC[C@@H]2O)CC(=O)N1c1ccccc1 (stereo partly drawn)
not listed: [15] | [44] | [45] | [55] | [57]
> 100 µM: all other assays above
